Laboratory results as given in patent publication US9765039B2, “Biaryl derivatives as bromodomain inhibitors” (Zenith Epigenetics Ltd., priority 2012, dated 2017).

Assays:
hIL-6 mRNA = experiment: Inhibition of hIL-6 mRNA transcription in LPS-stimulated U937 macrophages; assay type: cell-based, human; design: key: Active: Compounds with an IC50 value less than 30 μM are deemed to be active; settings: U937 differentiated into macrophages, 1 h pretreatment, lipopolysaccharide 3 h
Method in brief: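 U937 cells differentiated 3 days with 60 ng/mL PMA, pretreated 1 h with compound, then stimulated with […] E. coli LPS for 3 h at 37° C. hIL-6 mRNA quantified by one-step real-time RT-PCR, Ct normalised to internal control and expressed as fold induction relative to control.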

arthritic rats = experiment: In vivo efficacy in rat collagen induced arthritis; design: species or system female Lewis strain of rats; settings: collagen Day 1 and 7, dosed Day 11 to Day 17
Experimental: Rat collagen-induced arthritis is an experimental model of polyarthritis that has been widely used for preclinical testing of numerous anti-arthritic agents. Following administration of collagen, this model establishes a measurable polyarticular inflammation, marked cartilage destruction in association with pannus formation and mild to moderate bone resorption and periosteal bone proliferation. In this model, collagen was administered to female Lewis strain of rats on Day 1 and 7 of study and dosed with compounds from Day 11 to Day 17. Compounds were evaluated to assess the potential to inhibit the inflammation (including paw swelling), cartilage destruction and bone resorption in arthritic rats, using a model in which the treatment is administered after the disease has been established.

Human AML MV-4-11 cells = experiment: Inhibition of cell proliferation in cancer cell lines (CellTiter Aqueous One); assay type: cell-based; design: key: Active: Compounds with an IC50 value less than 30 μM were deemed to be active.; Not Active: Compounds with an IC50 value less than 30 μM were deemed to be active; settings: 72 hours
Method in brief: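 Exponentially growing MV-4-11 cells were treated immediately with two-fold compound dilutions from 30 µM to 0.2 µM in triplicate for 72 h at 37 °C. Viability was read by MTS (CellTiter Aqueous One) absorbance at 490 nm after 3-4 h; % proliferation vs DMSO gave IC50.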

COc1cc(OC)c2c(=O)[nH]c(-c3ccc(OCCNC(C)C)c(-c4ccc([S+](C)[O-])cc4)n3)nc2c1 (stereo not shown) [Example 41, 2-(5-(2-(Isopropylamino)ethoxy)-6-(4-(methylsulfinyl)phenyl)pyridin-2-yl)-5,7-dimethoxyquinazolin-4(3H)-one]
IL-6 activity (IC50 < 30 μM) (hIL-6 mRNA): Active
In vivo Activity (arthritic rats): Active
melting point: 93 to 95 °C
cell proliferation activity (IC50 < 30 μM) (Human AML MV-4-11 cells): Active
